According to article PMC11284340 (FASEB journal : official publication of the Federation of …, 2024):

Columns and labels:
[1] = target: T1, Drosophila insulin receptor kinase domain (D-IRK) (Drosophila melanogaster, UniProt P09208); test: [γ-32P]-ATP phosphocellulose kinase assay; type: biochemical; conditions: read-out: % inhibition at 10 μM
T1 sequence (P09208 1358-1672): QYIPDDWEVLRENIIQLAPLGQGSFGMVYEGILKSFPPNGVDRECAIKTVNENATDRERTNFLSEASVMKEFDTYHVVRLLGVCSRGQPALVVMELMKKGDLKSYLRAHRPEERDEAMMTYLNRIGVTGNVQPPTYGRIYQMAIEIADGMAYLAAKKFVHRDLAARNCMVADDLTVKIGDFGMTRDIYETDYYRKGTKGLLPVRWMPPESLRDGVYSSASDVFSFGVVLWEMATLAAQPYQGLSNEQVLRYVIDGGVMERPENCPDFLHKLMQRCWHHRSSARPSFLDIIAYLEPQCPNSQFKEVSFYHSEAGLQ

[2] = target: T1, Drosophila insulin receptor kinase domain (D-IRK); test: [γ-32P]-ATP phosphocellulose kinase assay at […]; type: biochemical; conditions: read-out: % inhibition at 10 μM
[3] = substrate: Nc1ncnc2c1ncn2[C@@H]1O[C@H](COP(=O)(O)OP(=O)(O)OP(=O)(O)O)[C@@H](O)[C@H]1O; test: continuous spectrophotometric coupled assay, Km; type: biochemical, Drosophila melanogaster; conditions: Mg2+ ATP-binding site

**Q.** With CN[C@@H]1C[C@H]2O[C@@](C)([C@@H]1OC)n1c3ccccc3c3c4c(c5c6ccccc6n2c5c31)C(=O)NC4 [Staurosporine] as the molecule, how does the inhibition at 10 µM [1] read?
**A.** Its inhibition at 10 µM is 98%.

**Q.** Which inhibition at 10 µM [2] does the source give for COc1cc2c(Nc3ccc(Br)cc3F)ncnc2cc1OCC1CCN(C)CC1 [Vandetanib] here?
**A.** Its inhibition at 10 µM is ~70%.

B1: Drosophila insulin receptor kinase domain (D-IRK) (Drosophila melanogaster) (protein)
chain: T1 sequence (P09208 1358-1672)
**Q.** Which Km [3] does the source give for B1 here?
**A.** Its Km is 1350 ± 170 µM.
